Laboratory results taken from patent US6759557B2, “Melanin production inhibitors and skincare products containing such inhibitors” (Takasago International Corporation, priority 2001, dated 2004).

Key:
melanoma cells B-16 = test: Inhibiting effect on melanin synthesis in pigment cells (whiteness of cell residue observed by eye); assay type: cell-based; design: key to whiteness of cells rated by eye (melanin synthesis inhibition): −: same colour as the comparative solvent example (black); +: slight colour difference from the comparative solvent example (black grey); ++: clear colour difference from the comparative solvent example (white grey); +++: no colour in the cells (white); details: for whiteness of cells rated by eye (melanin synthesis inhibition): 4 days, B-16 melanoma cells
Description: In plastic culture flasks ([…]), 5×10^4 of melanoma cells B-16 were respectively inoculated and cultivated at 37° C. in DMEM culture media each containing 10% of blood serum (Nippon Suisan Co. Ltd) in the presence of 5% of carbon dioxide. After two days of cultivation, test samples diluted with ethanol were added to the culture media, so as to set their concentrations, respectively, at 1.6, 3.1 and 6.3 ppm for the compounds of Formula (1) where X is —CO— or —CHOH—, and at 0.8, 1.6 and 3.1 ppm for the compounds of Formula (1) where X is —CO—CHOH—. The culture media were further cultivated for 4 days.
When the cultivation was terminated, the culture media were removed from the respective flasks and the remaining cells were rinsed with a phosphate buffer solution (PBS hereinafter). The cells in each flask were treated with a culture medium containing trypsin and EDTA (ethylenediaminetetracetic acid) to yield cell suspensions. The latter were subjected to centrifugation, and the cells were recovered.
The obtained cells were once washed with PBS. The residues were observed by eye, and their whiteness was rated as below.

SMILES | whiteness of cells rated by eye (melanin synthesis inhibition) (melanoma cells B-16; 0.8 ppm in culture medium) | whiteness of cells rated by eye (melanin synthesis inhibition) (melanoma cells B-16; 1.6 ppm in culture medium) | whiteness of cells rated by eye (melanin synthesis inhibition) (melanoma cells B-16; 3.1 ppm in culture medium) | whiteness of cells rated by eye (melanin synthesis inhibition) (melanoma cells B-16; 6.3 ppm in culture medium) | melting point [°C] | melanin synthesis inhibiting activity (in words) (melanoma cells B-16; concentration not given)
O=C1CCCCCCCCCCCC=CCCCCCCCCCC1O (centres unmarked) [2-hydroxy-12-cyclotetracosenone] | ++ | +++ | +++ |  |  | 
CCCCCCCCC(=O)CCCCCCCC [9-heptadecanone, reference compound] |  |  | − | − |  | 
OC1CCCCCCCCCCCCCCCC1 [cycloheptadecanol] |  | + | ++ | +++ |  | 
O=C1CCCCCCCCCCCCCCC1 [cyclohexadecanone] |  | + | ++ | +++ |  | 
O=C1CCCCCCCCCCCCCC1 [cyclopentadecanone] |  | + | ++ | +++ |  | 
O=C1CCCCCCCCCC=CCCCCCCCC1O (centres unmarked) [2-hydroxy-10-cycloeicosenone] | ++ | +++ | +++ |  |  | 
CC1CCCCCCCCCCCCC(=O)C1 (centres unmarked) [1-3-methylcyclopentadecanone] |  | + | ++ | +++ |  | 
O=C1CCCCCCCCC=CCCCCCCCCC1 (mixture of isomers) [10(EZ)-cycloeicosenone] |  | ++ | +++ | +++ |  | 
CC(=O)CCC1=C(C)CCCC1(C)C [dihydro-β-ionone, reference compound] |  | − | + | ++ |  | 
OC1CCCCCCCCC=CCCCCCCCCC1 (mixture of isomers) [10(EZ)-cycloeicosenol] |  | ++ | +++ | +++ |  | 
O=C1CCCCCCCCCCCCCCCCC1O (centres unmarked) [2-hydroxycyclooctadecanone] | + | ++ | +++ |  | 31 to 32 | 
O=C1CCC/C=C/CCCCCCCCCC1 [5(E)-cyclohexadecenone] |  | + | ++ | +++ |  | 
CC1C=CCCCCCCCCCCC(=O)CC1 (mixture of isomers) [5(EZ)-4-methylcyclohexadecenone] |  | + | ++ | +++ |  | 
CCCCCCCCCCCCCC(=O)CC [3-hexadecanone, reference compound] |  |  | − | − |  | 
OC1CCCCCCCCCCC1 [cyclododecanol, reference compound] |  |  | − | + |  | 
O=C1CCCCCCCCCCCCCCCCCCC1O (centres unmarked) [2-hydroxycycloeicosanone] | ++ | +++ | +++ |  |  | 
OC1CCCC=CCCCCCCCCCC1 (mixture of isomers) [5(EZ)-cyclohexadecenol] |  | + | ++ | +++ |  | 
O=C1CCCCCCCCCCCCCC1O (centres unmarked) [2-hydroxycyclopentadecanone, reference compound] |  | − | − | +++ |  | 
O=C1CCCCCCCCCCCCCCC1O (centres unmarked) [2-hydroxycyclohexadecanone] |  | − | + |  |  | 

SMILES | whiteness of cells rated by eye (melanin synthesis inhibition) (melanoma cells B-16; 0.8 ppm in culture medium) | whiteness of cells rated by eye (melanin synthesis inhibition) (melanoma cells B-16; 1.6 ppm in culture medium) | whiteness of cells rated by eye (melanin synthesis inhibition) (melanoma cells B-16; 3.1 ppm in culture medium) | whiteness of cells rated by eye (melanin synthesis inhibition) (melanoma cells B-16; 6.3 ppm in culture medium) | melting point [°C] | melanin synthesis inhibiting activity (in words) (melanoma cells B-16; concentration not given)
OC[C@H]1O[C@@H](Oc2ccc(O)cc2)[C@H](O)[C@@H](O)[C@@H]1O [arbutin, reference compound] |  | − | + | ++ |  | much weaker melanin-synthesis inhibiting activities
O=C1CCCCCCCCCCC1 [cyclododecanone, reference compound] |  |  | − | + |  | 
O=C1CCCCCCCCCCCCCCCCCCCCCCC1O (centres unmarked) [2-hydroxycyclotetracosanone] | ++ | +++ | +++ |  | 39 to 40 | 
CC(O)CCC1C(C)CCCC1(C)C (centres unmarked) [tetrahydroionol, reference compound] |  | − | + | ++ |  | 
O=C1CCCCCCCCCCCCCCC=CCCCCCCCCCCCCC1O (centres unmarked) [2-hydroxy-15-cyclotriacontenone, reference compound] |  |  | − |  |  | 
O=C1CCCCCCCCCCCCCCCCCCC1 [cycloeicosanone] |  | + | ++ | +++ |  | 
CC1C=CCCCCCCCCCCC(O)CC1 (mixture of isomers) [5(EZ)-4-methylcyclohexadecenol] |  | + | ++ | +++ |  | 
O=C1CCC/C=C\CCCCCCCCCC1 [5(Z)-cyclohexadecenone] |  | + | ++ | +++ |  | 
O=C1CCCCCCCCCCCCCCCC1 [cycloheptadecanone] |  | + | ++ | +++ |  | 
OC1CCCCCCCC=CCCCCCCC1 (mixture of isomers) [9(EZ)-cycloheptadecenol] |  | + | ++ | +++ |  | 
CCCCCCCC(=O)CCCCCCC [8-pentadecanone, reference compound] |  |  | − | − |  | 
CCCCCCCCCCCCC(C)=O [2-tetradecanone, reference compound] |  |  | − | − |  | 
O=C1CCCCCCCCC=CCCCCCCC1O (centres unmarked) [2-hydroxy-9-cyclooctadecenone] | + | ++ | +++ |  |  | 
OC1CCCCCCCCCCCCCC1 [cyclopentadecanol] |  | + | ++ | +++ |  | 
OC1CCCCCCCCCCCCCCC1 [cyclohexadecanol] |  | + | ++ | +++ |  | 
CC1/C=C/CCCCCCCCCCC(=O)CC1 (centres unmarked) [5(E)-4-methylcyclohexadecenone] |  | + | ++ | +++ |  | 
O=C1CCCCCCCC=CCCCCCC1O (centres unmarked) [2-hydroxy-8-cyclohexadecenone] |  | − | + |  |  | 
O=C1CCCCCCCC=CCCCCCCC1 (mixture of isomers) [9(EZ)-cycloheptadecenone] |  | + | ++ | +++ |  | 
